How the values were obtained:
[1] = test system: alkylating agent-sensitive E. coli strain MV2157; assay: ON-selector function of AAG gene: survival rate under MMS; format: cell-based, Escherichia coli
Protocol: The ON-selector function of the AAG gene was studied. First, alkylating agent-sensitive E. coli strains MV2157 were separately transfected with plasmids containing AAG and variants thereof, specifically, pTrc-aag (WT), pTrc-aag (E125A), and pTrc-aag-ape1 prepared in Example 1, and were compared for their survival rates in the presence/absence of MMS. The E. coli strain transfected with pTrc-aag (E125A) was used as a negative control.
Next, 1 μL of culture was inoculated in LB liquid medium, and cultured at 37° C. for 3 hours. MMS was added at a final concentration of 0 to 40 mM, and culture was conducted at 37° C. for 15 to 60 minutes. […] A value obtained by dividing the viable cell count of the sample to which MMS had been added by the viable cell count of the sample to which MMS had not been added was defined as a survival rate.

[2] = test system: TK-deficient E. coli strain in which hsvTK was expressed (hsvTK+); assay: ON selection: 5FdU concentration vs viable cell count, hsvTK+; format: cell-based, Escherichia coli
Protocol: With the TK-deficient strain of E. coli JW1226, a human herpes virus derived thymidine kinase (hsvTK) was expressed by transfecting pTrc-hsvtk (FIG. 3), and a relationship between the concentration of 5FdU and the survival rate of cells (viable cell count) was investigated.
First, JW1226 cells transfected with pTrc-hsvtk were diluted with 1 mL of positive selection medium so as to achieve an OD600 of 0.002 (approximately 10^6 cells/mL), and cultured at 37° C. for 12 hours while being rotated at 200 rpm. The positive selection medium used was medium containing tryptone at 2% w/v, NaCl at 0.5% w/v, dT at 10 μg/mL, adenosine at 1 μg/mL, and 5FdU at 0 to 25 μg/mL. After the culture, a portion of the resultant culture was collected and inoculated in an LB plate containing ampicillin, and the number of colonies grown was counted as a viable cell count.

[3] = test system: TK-deficient E. coli strain in which hsvTK was not expressed (hsvTK−); assay: ON selection: 5FdU concentration vs viable cell count, hsvTK−; format: cell-based, Escherichia coli; conditions: 5FdU 0 to 25 μg/mL, 12 hours
[4] = test system: E. coli MV2157 switch strains with selector plasmid Ver. 2; assay: Enrichment efficiency by dual selection, Circuit-B:C:D = 1:100:100; format: cell-based, Escherichia coli; conditions: 0.4% MMS, 30 minutes, approximately 10^6 cells/mL
Protocol: Next, enrichment efficiency by dual selection was evaluated. Selector plasmid Ver. 2 (FIG. 13-B) was used as a selector plasmid, and the following three kinds of model genetic circuits were used: Circuit-B; Circuit-C; and Circuit-D (see FIGS. 2-B, 2-C, and 2-D). The selector plasmid and one kind of model genetic circuit were transfected into E. coli MV2157. Each switch strain was inoculated in 2 mL of LB medium containing AHL, and cultured at 37° C. for 12 hours. Next, the switch strains having Circuit-B, Circuit-C, or Circuit-D were mixed at an abundance ratio of 1:100:100 in terms of OD. The mixed cell population was subjected to OFF selection by the same method as above, and then cultured at 37° C. for 2 hours. The cells were harvested by centrifugation, the medium was exchanged for M9 minimal medium, MMS was added at a concentration of 0.2%, 0.3%, or 0.4%, and the whole was left to stand still at 37° C. for 30 minutes (ON selection). After that, the medium was exchanged for LB medium, culture was conducted for 12 hours, and plasmids were extracted from the culture solution. The plasmids were transformed together with pλ-gfp into XL10-GOLD™ ultracompetent cells (Agilent Technologies). After that, the transformed cells were inoculated in solid media supplemented and not supplemented with AHL, and the numbers of cells expressing GFP were compared. […]

[5] = test system: E. coli MV2157 transfected with selector plasmid Ver. 2 and Circuit-C or Circuit-D; assay: ON selection of genetic circuit with selector plasmid Ver. 2 under MMS; format: cell-based, Escherichia coli
Protocol: First, E. coli MV2157 transfected with selector plasmid Ver. 2 and Circuit-C (referred to as “ON strain” in Example 3), and E. coli MV2157 transfected with selector plasmid Ver. 2 and […] (referred to as “OFF strain” in Example 3) were prepared. […] The cell density at the time of the MMS treatment is approximately 10^8 cells/mL. […] A value obtained by dividing the viable cell count of the sample to which MMS had been added by the viable cell count of the sample to which MMS had not been added was defined as a survival rate.
Next, time-dependent changes in the survival rates of the ON strain and the OFF strain when MMS was added at 0.2% were investigated. In this case, an ON strain transfected with pTrc-ape1 was prepared and similarly studied for comparison. Culture and treatment with MMS of each strain of E. coli were conducted by similar methods to the methods in the foregoing.

E. coli cell population = conditions: 37 μM dP; cited from earlier work
[6] = test system: TK-deficient cells transfected with pTrc-hsvtk constantly expressing hsvTK; assay: Rapidity of OFF selection (dP shock); format: cell-based, Escherichia coli; conditions: dP 1 μM; 5, 30 or 60 minutes
Protocol: First, TK-deficient cells transfected with pTrc-hsvtk (FIG. 3) so as to constantly express hsvTK were cultured under shaking at 37° C. and 200 rpm until an OD of 0.05 (approximately 3×10^7 cells/mL) was achieved. The resultant was dispensed at 1 mL each, dP was added (final concentration: 1 μM), and culture was continued at 37° C. After a lapse of 5, 30, or 60 minutes, 20 μL of the culture (approximately 10^6 cells) were collected and inoculated in an LB plate containing ampicillin, and the number of colonies grown was counted as a viable cell count.

[7] = test system: TK-deficient E. coli strain transfected with a control plasmid pTrc99A (hsvTK−); assay: OFF selection: dP concentration vs viable cell count, hsvTK− control; format: cell-based, Escherichia coli; conditions: dP 0 to 100 nM, 12 hours
[8] = test system: TK-deficient E. coli strain JW1226 in which hsvTK was expressed (hsvTK+); assay: OFF selection: dP concentration vs viable cell count, hsvTK+; format: cell-based, Escherichia coli; conditions: dP 0 to 100 nM, 12 hours
Protocol: With the TK-deficient E. coli strain JW1226, human herpes virus derived thymidine kinase (hsvTK) was expressed by transfecting pTrc-hsvtk (FIG. 3), and a relationship between the concentration of dP and the survival rate of cells (viable cell count) was investigated.
First, JW1226 cells transfected with pTrc-hsvtk were cultured in 2 mL of LB medium containing 100 μg/mL of ampicillin at 37° C. overnight. Next, the culture was diluted with 1 mL of fresh LB medium containing dP (at a final concentration of 0 to 100 nM) 1,000-fold (10^6 cells/mL), and stirred and shaken at 37° C. for 12 hours. After the culture, the cells were seeded on an LB-agar (1.5% w/v) plate containing ampicillin at 100 μg/mL. After incubation at 37° C. for 12 hours, the number of colonies grown was counted as a viable cell count.

pTrc-aag (WT): ON-selector plasmid containing a wild-type AAG gene
MMS resistance ([1]; 3-methyladenine repair enzyme-deficient strain): acquisition of MMS resistance has been confirmed

O=c1[nH]c(=O)n([C@H]2C[C@H](O)[C@@H](CO)O2)cc1F [5FdU, 5-fluoro-2′-deoxyuridine]
viable cell count ([2]; 5FdU 0 to 25 μg/mL, 12 hours, hsvTK+): decreased at a slow rate
survival rate of hsvTK+ as compared to hsvTK− ([2]; 5FdU 25 μg/mL): 4.8×10^7 fold
viable cell count [3]: decreased with increasing concentrations of 5FdU

CS(=O)(=O)O [MMS, methanesulfonic acid]
cell survival in ON selection [4]: all the cells were killed
survival rates of cells expressing AAG ([1]; MMS 20 mM, 60 minutes): significantly decreased
enrichment of cells expressing AAG ([1]; MMS treatment 15 to 60 minutes): ~1,000 fold
survival of all the strains ([1]; MMS ~40 mM): mostly died off
survival rate of OFF strain (AAG not expressed) ([5]; MMS 0.2-0.4%, 15 to 60 minutes): significantly decreased
survival rate of ON strain (AAG expressed) ([5]; MMS 0.2-0.4%, 15 to 60 minutes): only slightly reduced
difference in survival rate between the OFF strain and the ON strain ([5]; MMS 0.4%, 30 minutes): ≥ 10^4 fold

O=C1NC2=NOCCC2=CN1[C@H]1C[C@H](O)[C@@H](CO)O1 [dP, 6-(β-D-2-Deoxyribo-furanosyl)-3,4-dihydro-8H-pyrimido[4,5-c][1,2]oxazin-7-one]
fraction of E. coli cell population killed (E. coli cell population): 80%
viable cell count after dP shock [6]: almost zero
survival rate [7]: no reduction in survival rate
viable cell count [8]: significantly decreased in a dP concentration-dependent manner

From patent US9315816B2, “Method for rapidly developing gene switches and gene circuits” (National University Corporation Chiba University, priority 2010, dated 2016)
